# Measured values as given in patent publication US11260100B2, “Compositions targeting the interaction domain between p27Kip1 and Brk and methods of use thereof to inhibit p27 Y phosphorylation and cdk4 activity” (The Research Foundation for the State University of New York, priority 2014, dated 2022).
# What was measured:
# [1] = tested on: MB 231 (TNBC); assay: Palbociclib sensitivity of breast cancer line; type: cell-based; conditions: Homo sapiens; MB 231, moderate-responder
# [2] = tested on: MCF-7 inducible ALT cells; assay: Mouse xenograft model, MCF7-ALT tumors; type: in vivo, NOD/SCID mice; conditions: day 17; start volume 200 mm3; Palbociclib 100 mg/kg daily gavage, doxycycline 0.1 mg/ml in drinking water
# Experimental: FIG. 14: ALT slows tumor growth in animals, and ALT and PD dual treatment causes tumor regression. MCF-7 inducible ALT cells were injected into the 4th mammary gland of NOD/SCID mice. Tumors were allowed to develop to a volume of 200 mm3, before treatment. Vehicle: daily gavage with PBS. PD: Daily gavage of Palbociclib 100 mg/kg. Doxy: 0.1 mg/ml doxycycline added to the drinking water to allow continuous uptake and induction of ALT in the human cancer cells. Doxy+PD: Daily gavage of Palbociclib 100 mg/kg and 0.1 mg/ml doxycycline added to the drinking water. Vehicle treated animals rapidly progressed and by 17 days, tumor volumes were >3000 mm PD treatment slowed down tumor growth but by day 17, tumors were >2500. […] However, dual ALT and PD (doxy/PD) treatment, caused tumor regression by […] (e.g., from 200 mm3 down to 0-40 mm3), by day 5, which was durable up to day 19.
# NP-ALT was added to cell media in the absence of fetal bovine serum for 6 hours. This media was removed and replaced with FBS+media, and cells were allowed to recover for 2 days, at which time, cell counts were determined. Counts were standardized to the proliferation seen in the NO FBS untreated control. • Expression in vivo. […] Tumor volume was monitored every other day using digital calipers. […] Doxy+PD: Daily gavage of Palbociclib 100 mg/kg and 0.1 mg/ml doxycycline added to the drinking water. • Quantitative RT-PCR. […]
# [3] = tested on: MCF10A; assay: PD0332991 inhibitor treatment, proliferation by cell counting; type: cell-based; conditions: Homo sapiens, MCF-10A, 48 h post treatment, read-out: IC50 (concentration needed to inhibit proliferation by 50%)
# Experimental: (§1) Immunoprecipitation with IgG served as a negative control (FIG. 6C). DNA with Hoechst stain is in blue and is merged with red and green staining (FIG. 6D). (FIG. 6E) Cdk4 was immunoprecipitated from the lysates and recombinant Rb was added to perform an in vitro kinase assay in the presence of ATP Immunoblot analysis was performed to probe for Rb, Ser780 pRb and cdk4 Immunoprecipitation with IgG served as a negative control. (FIG. 6F) Cells were treated with different concentrations of PD0332291 or DMSO as a control at Day 2. Total cell numbers were analyzed by counting 24 and 48 hours post treatment to determine IC50 values. (FIG. 6G) Cells were treated with different concentration of PD032291 or DMSO and analyzed by PI staining and FACS analysis. % G1 content is plotted.
# (§2) The PCR fragments were ligated to the T7pGEMEX human His-p27 or T7pGEMEX human Flag-p27 plasmid for expression in E. coli. Mutants Y74F, Y88F, and Y88/89F were previously described (12). Flag-tagged p27 mutants were purified by Flag-immunoprecipitation with Flag antibody (M-2, Sigma F-18C9) and eluted with Flag peptide (Sigma F-4799) according to manufacturer's protocol. His-tagged p27 mutants were purified by FPLC via his-trap affinity chromatography (His-Trap HP, GE Healthcare 71-5247-01). The affinity column was stripped according to manufacturer's protocol, then washed with 5 column volumes of 100 mM CoCl2. The crude material was applied with a loading buffer consisting of 6 M urea, 500 mM NaCl, 50 mM Tris-HCl, pH 7.5 and 20% glycerol. The material was washed with 500 mM NaCl, 50 mM Tris-HCl, pH 7.5 and 10% glycerol. The purified material was eluted with 500 mM imidazole,20 mM Hepes pH 7.4 and 1 M KCl. The protein was then dialyzed overnight in a solution of 25 mM Hepes pH 7.7, 150 mM NaCl, 5 mM MgCl2 and 0.05% NP40.
# [4] = tested on: MDA MB-468 cells; assay: as above; type: cell-based; conditions: Homo sapiens, 48 h post treatment, read-out: IC50 (concentration needed to inhibit proliferation by 50%)
# Experimental: as §1, §2
# [5] = tested on: Mock MCF7 cells; assay: as above; type: cell-based; conditions: Homo sapiens, 48 h post treatment, read-out: IC50 (concentration needed to inhibit proliferation by 50%)
# Experimental: as §1, §2
# [6] = tested on: MCF7 WT Brk expressing cells; assay: as above; type: cell-based; conditions: Homo sapiens, 48 h post treatment, read-out: IC50 (concentration needed to inhibit proliferation by 50%)
# Experimental: as §1, §2
structure (smiles),measurement,setting,value
CC(=O)c1c(C)c2cnc(Nc3ccc(N4CCNCC4)cn3)nc2n(C2CCCC2)c1=O [PD0332991],IC50,[1],400 nM
same,tumor volume,[2],> 2500 mm3
same,IC50,[3],110 nM
same,IC50,[4],350 nM
same,IC50,[5],150 nM
same,IC50,[6],> 600 nM
